Measurements taken from patent US20110288086A1, “POLYCYCLIC QUINAZOLINES, PREPARATION THEREOF, AND USE THEREOF” (priority 2010, published 2011).
Counter-ions that a name gives are not always drawn.

Tests used:
[1] = system: Colo320 human rectal cancer cells; experiment: Tumor cell inhibition ratio, CCK-8 kit, Colo320; settings: COLO 320, read-out: Antiproliferative effect (inhibition ratio) Colo320
Excerpt: (§1) The inhibitory activities of the compounds on tumor cells in vitro

[2] = system: Hut78 T-Lymphocytic Leukemia cells; experiment: Tumor cell inhibition ratio, CCK-8 kit, Hut78; settings: Homo sapiens, HuT78, read-out: Antiproliferative effect (inhibition ratio) Hut-78
Excerpt: as §1

[3] = system: A549 human lung cancer cells; experiment: Tumor cell inhibition ratio, CCK-8 kit, A549; settings: A549, read-out: Antiproliferative effect (inhibition ratio) A549
Excerpt: as §1

EGFR tyrosine kinase = EGFR tyrosine kinase (Homo sapiens, UniProt P00533); experiment: EGFR tyrosine kinase inhibition in vitro (Invitrogen EGFR inhibitor screening kit PV3193)
EGFR tyrosine kinase, sequence (P00533 25-1210): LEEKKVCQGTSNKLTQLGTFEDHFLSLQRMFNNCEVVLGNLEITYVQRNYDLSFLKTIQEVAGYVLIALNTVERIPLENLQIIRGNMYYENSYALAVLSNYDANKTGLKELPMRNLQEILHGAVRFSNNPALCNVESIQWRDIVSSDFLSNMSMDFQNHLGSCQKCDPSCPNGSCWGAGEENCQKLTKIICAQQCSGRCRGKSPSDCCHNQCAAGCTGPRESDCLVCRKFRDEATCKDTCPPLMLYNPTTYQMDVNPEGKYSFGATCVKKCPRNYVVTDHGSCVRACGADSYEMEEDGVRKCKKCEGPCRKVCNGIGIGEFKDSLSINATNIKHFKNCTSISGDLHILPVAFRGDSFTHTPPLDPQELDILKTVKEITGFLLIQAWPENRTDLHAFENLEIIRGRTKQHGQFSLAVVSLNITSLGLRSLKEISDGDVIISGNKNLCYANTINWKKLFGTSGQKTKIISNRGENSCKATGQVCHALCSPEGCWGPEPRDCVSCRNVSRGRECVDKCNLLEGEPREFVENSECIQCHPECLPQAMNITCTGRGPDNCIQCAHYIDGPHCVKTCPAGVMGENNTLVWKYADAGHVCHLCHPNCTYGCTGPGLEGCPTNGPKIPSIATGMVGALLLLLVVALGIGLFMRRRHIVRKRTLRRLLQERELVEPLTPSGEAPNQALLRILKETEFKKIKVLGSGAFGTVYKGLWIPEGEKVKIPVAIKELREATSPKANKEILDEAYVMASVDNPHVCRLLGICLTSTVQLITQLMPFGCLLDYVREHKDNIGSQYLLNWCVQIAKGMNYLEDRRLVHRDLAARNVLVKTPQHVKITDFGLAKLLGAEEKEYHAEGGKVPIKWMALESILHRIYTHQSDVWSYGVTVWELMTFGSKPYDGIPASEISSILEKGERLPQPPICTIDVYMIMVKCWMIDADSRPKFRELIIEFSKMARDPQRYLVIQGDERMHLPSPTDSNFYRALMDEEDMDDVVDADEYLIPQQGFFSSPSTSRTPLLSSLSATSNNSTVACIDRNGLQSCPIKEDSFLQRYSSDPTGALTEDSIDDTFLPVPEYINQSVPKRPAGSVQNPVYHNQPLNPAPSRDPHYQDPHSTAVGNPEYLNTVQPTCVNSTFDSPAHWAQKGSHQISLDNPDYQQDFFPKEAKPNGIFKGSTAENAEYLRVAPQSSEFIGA
Excerpt: The inhibitory activities of EGFR tyrosine kinase in vitro
Erlotinib hydrochloride was used as a positive control drug.

aurora kinase B = target: T1, aurora kinase B (Homo sapiens, UniProt Q96GD4); experiment: Aurora kinase B inhibition in vitro (Invitrogen aurora kinase screening kit PV3174); type: biochemical
T1 construct: purchased Invitrogen PV3174
T1 sequence (Q96GD4 whole entry): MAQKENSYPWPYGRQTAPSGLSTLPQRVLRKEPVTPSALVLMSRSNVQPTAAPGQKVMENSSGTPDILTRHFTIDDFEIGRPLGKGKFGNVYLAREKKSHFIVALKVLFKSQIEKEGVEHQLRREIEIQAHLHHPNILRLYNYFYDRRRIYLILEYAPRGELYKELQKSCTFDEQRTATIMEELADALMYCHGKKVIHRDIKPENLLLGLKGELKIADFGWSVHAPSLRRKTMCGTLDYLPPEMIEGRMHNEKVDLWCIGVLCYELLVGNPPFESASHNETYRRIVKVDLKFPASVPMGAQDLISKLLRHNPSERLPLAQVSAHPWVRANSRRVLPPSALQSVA

[4] = system: Jurkat E6-1 human T-cell lymphoma; experiment: Tumor cell inhibition ratio, CCK-8 kit, Jurkat E6-1; settings: Jurkat E6.1, read-out: Antiproliferative effect (inhibition ratio) E6-1
Excerpt: as §1

[5] = system: K562 human chronicity marrow leukemic cells; experiment: Tumor cell inhibition ratio, CCK-8 kit, K562; settings: K562, read-out: Antiproliferative effect (inhibition ratio) K562
Excerpt: as §1

[6] = system: Hep3B2.1-7 human hepatoma carcinoma cells; experiment: Tumor cell inhibition ratio, CCK-8 kit, Hep3B; settings: read-out: Antiproliferative effect (inhibition ratio) Hep3B
Excerpt: as §1

[7] = system: MDA-MB-435s human breast carcinoma cells; experiment: Tumor cell inhibition ratio, CCK-8 kit, MDA-MB-435s; settings: read-out: Antiproliferative effect (inhibition ratio) 435s
Excerpt: as §1

[8] = system: PANC-1 human pancreatic cancer cells; experiment: Tumor cell inhibition ratio, CCK-8 kit, PANC-1; settings: PANC-1, read-out: Antiproliferative effect (inhibition ratio) PANC-1
Excerpt: as §1

[9] = system: PC-3 human carcinoma of prostate; experiment: Tumor cell inhibition ratio, CCK-8 kit, PC-3; settings: read-out: Antiproliferative effect (inhibition ratio) PC-3
Excerpt: as §1

Row | Compound | inhibition at 10 µM [1] | inhibition at 100 µM [1] | inhibition at 10 µM [2] | inhibition at 100 µM [2] | inhibition at 10 µM [3] | inhibition at 100 µM [3] | The inhibition ratio of the compound on EGFR(%) (EGFR tyrosine kinase; 40 μM) | The inhibition ratio of the compound on EGFR(%) (EGFR tyrosine kinase; 200 μM) | The inhibition ratio of the compound on Aurora B(%) (aurora kinase B; 40 μM) | The inhibition ratio of the compound on Aurora B(%) (aurora kinase B; 200 μM) | inhibition at 10 µM [4] | inhibition at 100 µM [4] | inhibition at 10 µM [5] | inhibition at 100 µM [5] | inhibition at 10 µM [6] | inhibition at 100 µM [6] | inhibition at 10 µM [7] | inhibition at 100 µM [7] | inhibition at 10 µM [8] | inhibition at 100 µM [8] | also measured
1 | COCCOc1cc2c(cc1OCCOC)C1=Nc3cc(O)ccc3CN1C=N2 [Compound V-18, 11-hydroxy-2,3-bis(2-methoxyethoxy)-8H-quinazolino[4,3-b]quinazoline] | 38.1% | 75.1% | 19.7% | 65.2% | 37.8% | 78.6% | 33.2% | 78.8% | 23.2% | 76.9% | 44.1% | 84% | 10.4% | 59% | 40.1% | 77.5% | 36.6% | 72.3% | 30% | 84.4% | inhibition at 10 µM [9]: 37%; inhibition at 100 µM [9]: 76.2%
2 | COCCOc1cc2c(cc1OCCOC)C1=Nc3cccc(OC)c3CN1C=N2 [Compound V-10, 9-methoxy-2,3-bis(2-methoxyethoxy)-8H-quinazolino[4,3-b]quinazoline] | 10.8% | 72.8% | 41.1% | 72.2% | 28.8% | 82.8% | 30.8% | 78.5% | 20.8% | 73.6% | 51.8% | 84.2% | 47.5% | 85% | 31.9% | 72.2% | 29.6% | 65.1% | 36.5% | 96.9% | inhibition at 10 µM [9]: 9.39%; inhibition at 100 µM [9]: 91.7%
3 | C#Cc1cccc2c1CN1C=Nc3cc(OC)c(OC)cc3C1=N2 [Compound V-31, 9-ethynyl-2,3-dimethoxy-8H-quinazolino[4,3-b]quinazoline] | 30.8% | 92.8% | 41.1% | 72.2% | 28.8% | 32.8% | 30.6% | 76.5% | 10.6% | 66.5% | 21.8% | 84.2% | 37.5% | 85% | 31.9% | 62.2% | 50.6% | 85.1% | 46.5% | 96.4% | inhibition at 10 µM [9]: 29.4%; inhibition at 100 µM [9]: 81.7%
4 | COCCOc1cc2c(cc1OCCOC)C1=Nc3cccc(C(F)(F)F)c3CN1C=N2 [Compound V-9, 9-trifluoromethyl-2,3-bis(2-methoxyethoxy)-8H-quinazolino[4,3-b]quinazoline] | 46.3% | 73.3% | 19.2% | 70.5% | 33.7% | 87.5% | 13.0% | 60.3% | 17.6% | 60.5% | 20.4% | 65.4% | 34.6% | 79.9% | 40.1% | 82.8% | 54.9% | 80.7% | 11.7% | 55.6% | inhibition at 10 µM [9]: 16.4%; inhibition at 100 µM [9]: 78%
5 | COCCOc1cc2c(cc1OCCOC)C1=Nc3cccc(F)c3CN1C=N2 [Compound V-3, 9-fluoro-2,3-bis(2-methoxyethoxy)-8H-quinazolino[4,3-b]quinazoline mesylate] | 34.8% | 79% | 44.1% | 84.1% | 44.6% | 76.2% | 49.5% | 81.6% | 39.5% | 83.6% | 42% | 78% | 43.1% | 88.8% | 42.3% | 80.7% | 3.38% | 84.1% | 30.9% | 75.4% | inhibition at 10 µM [9]: 34%; inhibition at 100 µM [9]: 87%
6 | COCCOc1cc2c(cc1OCCOC)C1=Nc3cc(F)ccc3CN1C=N2 [Compound V-16, 11-fluoro-2,3-bis(2-methoxyethoxy)-8H-quinazolino[4,3-b]quinazoline] | 52.7% | 99.4% | 44.3% | 99.6% | 50.7% | 70.2% | 21.7% | 80.1% | 21.5% | 78.1% | 56.6% | 97.3% | 53.6% | 93.8% | 30.3% | 74.6% | 48.9% | 66.2% | 22.4% | 99.9% | inhibition at 10 µM [9]: 53.5%; inhibition at 100 µM [9]: 98.9%
7 | COCCOc1cc2c(cc1OCCOC)C1=Nc3cc(C#N)ccc3CN1C=N2 [Compound V-17, 11-cyano-2,3-bis(2-methoxyethoxy)-8H-quinazolino[4,3-b]quinazoline] | 9.66% | 26.1% | 35.9% | 45.3% | 49.9% | 87.1% | 25.4% | 70.6% | 26.4% | 84.3% | 33.7% | 79.6% | 19.1% | 25.2% | 58.4% | 85.2% | 37.5% | 95.5% | 19.6% | 56.8% | inhibition at 10 µM [9]: 28.1%; inhibition at 100 µM [9]: 91.7%
8 | COCCOc1cc2c(cc1OCCOC)C1=Nc3ccc(OCc4cccc(F)c4)c(Cl)c3CN1C=N2 [Compound V-14, 9-chloro-10-(3-fluoro-benzyloxy)-2,3-bis(2-methoxyethoxy)-8H-quinazolino[4,3-b]quinazoline] | 17.6% | 88% | 21.3% | 98.7% | 31.1% | 97.8% | 45.2% | 87.9% | 23.2% | 76.9% | 26.9% | 97.7% | 36.6% | 100% | 45.1% | 100% | 46.6% | 94.8% | 38.3% | 99.9% | inhibition at 10 µM [9]: 38.5%; inhibition at 100 µM [9]: 97.1%
9 | COCCOc1cc2c(cc1OCCOC)C1=Nc3cccc(Cl)c3CN1C=N2.Cl [Compound V-1, 9-chloro-2,3-bis(2-methoxyethoxy)-8H-quinazolino[4,3-b]quinazoline hydrochloride monohydrate] | 55.1% | 81% | 16.1% | 64.5% | 40.5% | 81.4% | 57.6% | 91.5% | 47.6% | 88.6% | 55% | 81.7% | 40.7% | 87% | 50.4% | 89.3% | 60.9% | 91.2% | 35.7% | 78.1% | inhibition at 10 µM [9]: 51.6%; inhibition at 100 µM [9]: 62.4%
